# According to PMC6251916, “CKD-506, a novel HDAC6-selective inhibitor, improves renal outcomes and survival in a mouse model of systemic lupus erythematosus” (Scientific Reports, 2018):
# Assays:
# [1] = Pharmacokinetic analysis after single intraperitoneal injection; assay type: in vivo, NZB/W F1 mice; settings: for AUCinf / AUC0-24hr / Cmax / T1/2 / Tmax: plasma, mean ± SD; for AUCinf: extrapolated
# Description: Four 23-week old female NZB/W F1 mice were purchased from Jackson Laboratory and housed in CKD Research Institute animal facility. This study was reviewed and approved by the Institutional Animal Care and Use Committee of CKD Research Institute. All procedures were in compliance with Animal Welfare Act Regulations and the Guide for the Care and Use of Laboratory Animals. The indicated amount of CKD-506 was injected intraperitoneally into NZB/W F1 mice. Blood samples were collected from retro-orbital plexus using a heparinized capillary tube under diethyl-ether anesthesia at pre-dose (0) and 0.25, 1, 2, 4, 8 and 24 hours post-dose at day of PK sampling. After centrifugation at 13,000 rpm for 4 min and 4 °C, ten microliters of the separated plasma was dispensed into microtube and 120 μl of organic solvent (90% acetonitrile (in MeOH, v/v)) was immediately added for deproteinization/extraction. The pre-treated samples had been kept at −70 °C until analysis. Ten microliters of internal standard (verapamil 500 ng/ml in acetonitrile) was added into the pre-treated plasma samples and vortexed for 1 min and then, centrifuged at 13,000 rpm for 4 min and 4 °C. Eighty microliters of the supernatant of the sample were transferred into a 96 well-autosampler plate and 40 μl of HPLC water was then added in each well. The concentration of CKD-506 in samples were analyzed using API 4000 QTRAP (AB SCIEX) (Framingham, MA).
# NZB/W F1 female mice = assay: Murine SLE model: serum cytokine levels (Milliplex); assay type: in vivo, mouse
# Description: Serum samples were assayed using Milliplex® MAP Kits (Millipore) for granulocyte macrophage-colony stimulating factor (GM-CSF), interferon-γ (IFN-γ), interleukin-1α (IL-1α), IL-1β, IL-10, IL-12(p70), IL-15, IL-17a, IL-2, IL-4, IL-6, tumor necrosis factor α (TNF-α), transforming growth factor beta 1 (TGF-β1), IL-22, IL-23, IFN-inducible protein 10 (IP-10 (CXCL10)) and chemokine (C-C motif) ligand 2 (CCL2 (MCP-1)).
# [2] = group D: CKD-506 10 mg/kg/day, at autopsy, mean ± SD, n = 10
# [3] = group E: CKD-506 30 mg/kg/day, at autopsy, mean ± SD, n = 14
substance,measurement,setting,value
CKD-506,AUCinf,[1]; 10 mg/kg i.p. single,818 ± 130 ng·h/mL
same,AUC0-24hr,[1]; 10 mg/kg i.p. single,737 ± 104 ng/h/mL
same,Cmax,[1]; 10 mg/kg i.p. single,1336 ± 95.6 ng/mL
same,T1/2,[1]; 10 mg/kg i.p. single,14.0 ± 2.60 h
same,Tmax,[1]; 10 mg/kg i.p. single,0.25 ± 0.00 h
same,time for which dose is enough to inhibit in vivo HDAC6 activity,[1]; 30 mg/kg,more than 2 hr
same,AUCinf,[1]; 30 mg/kg i.p. single,2129 ± 275 ng·h/mL
same,AUC0-24hr,[1]; 30 mg/kg i.p. single,1997 ± 290 ng/h/mL
same,Cmax,[1]; 30 mg/kg i.p. single,3749 ± 314 ng/mL
same,T1/2,[1]; 30 mg/kg i.p. single,9.64 ± 4.08 h
same,Tmax,[1]; 30 mg/kg i.p. single,0.25 ± 0.00 h
same,time for which dose is enough to inhibit (90% of) in vivo HDAC6 activity,[1]; 50 mg/kg,more than 4 hr
same,AUCinf,[1]; 50 mg/kg i.p. single,4321 ± 408 ng·h/mL
same,AUC0-24hr,[1]; 50 mg/kg i.p. single,4028 ± 419 ng/h/mL
same,Cmax,[1]; 50 mg/kg i.p. single,7276 ± 585 ng/mL
same,T1/2,[1]; 50 mg/kg i.p. single,10.0 ± 1.33 h
same,Tmax,[1]; 50 mg/kg i.p. single,0.25 ± 0.00 h
same,exposure (Cmax and AUC) versus dose,"[1]; 10, 30, 50 mg/kg i.p.",increased in a dose-dependent manner
same,plasma half-life (T1/2),"[1]; single IP, overall statement",about 10 hrs
same,serum levels of IP-10 vs vehicle,"NZB/W F1 female mice; group CKD50, 36 weeks of age",significantly lower
same,Mean serum levels of CCL2 vs vehicle,"NZB/W F1 female mice; group CKD50, 36 weeks of age, difference not statistically significant",lower
same,Serum GM-CSF,NZB/W F1 female mice; [2],2.65 ± 8.38 pg/mL
same,Serum IFN-γ,NZB/W F1 female mice; [2],1.06 ± 3.34 pg/mL
same,Serum IL-1α,NZB/W F1 female mice; [2],371.96 ± 261.58 pg/mL
same,Serum IL-1β,NZB/W F1 female mice; [2],1.27 ± 2.04 pg/mL
same,Serum IL-2,NZB/W F1 female mice; [2],1.91 ± 5.61 pg/mL
same,Serum IL-4,NZB/W F1 female mice; [2],1.74 ± 0.60 pg/mL
same,Serum IL-6,NZB/W F1 female mice; [2],7.21 ± 7.41 pg/mL
same,Serum IL-10,NZB/W F1 female mice; [2],25.00 ± 25.33 pg/mL
same,Serum IL-12(70),NZB/W F1 female mice; [2],1.94 ± 3.69 pg/mL
same,Serum IL-15,NZB/W F1 female mice; [2],184.36 ± 280.13 pg/mL
same,Serum IL-17,NZB/W F1 female mice; [2],10.40 ± 12.20 pg/mL
same,Serum IL-22,NZB/W F1 female mice; [2],27.05 ± 31.48 pg/mL
same,Serum IL-23,NZB/W F1 female mice; [2],1.96 ± 6.20 pg/mL
same,Serum TGF-β1,NZB/W F1 female mice; [2],73356.45 ± 22951.98 pg/mL
same,Serum TNF-α,NZB/W F1 female mice; [2],7.91 ± 8.45 pg/mL
same,Serum GM-CSF,NZB/W F1 female mice; [3],5.32 ± 15.20 pg/mL
same,Serum IFN-γ,NZB/W F1 female mice; [3],6.60 ± 15.24 pg/mL
same,Serum IL-1α,NZB/W F1 female mice; [3],458.40 ± 339.71 pg/mL
same,Serum IL-1β,NZB/W F1 female mice; [3],74.66 ± 264.02 pg/mL
same,Serum IL-2,NZB/W F1 female mice; [3],9.32 ± 17.79 pg/mL
same,Serum IL-4,NZB/W F1 female mice; [3],8.60 ± 25.44 pg/mL
same,Serum IL-6,NZB/W F1 female mice; [3],21.23 ± 50.94 pg/mL
same,Serum IL-10,NZB/W F1 female mice; [3],56.55 ± 146.53 pg/mL
same,Serum IL-12(70),NZB/W F1 female mice; [3],74.50 ± 238.09 pg/mL
same,Serum IL-15,NZB/W F1 female mice; [3],162.41 ± 200.63 pg/mL
same,Serum IL-17,NZB/W F1 female mice; [3],21.14 ± 54.60 pg/mL
same,Serum IL-22,NZB/W F1 female mice; [3],13.00 ± 16.48 pg/mL
same,Serum IL-23,NZB/W F1 female mice; [3],100.56 ± 376.25 pg/mL
